How the values were obtained:
Assay type in all cases: cell-based
[1] = tested on: RSV fusion (HEK293T cells transfected with pCDNA3.1_A2_F); experiment: RSV fusion assay; conditions: human respiratory syncytial virus, HEK-293T, read-out: RSV Fusion Assay (n ≥ 2) IC50
Description: HEK293T ((ECACC 12022001) cells were cultured in T75 culture flasks in Dulbecco's medium (DMEM) containing 10% Foetal Bovine serum (FBS), 50 units per mL Penicillin and 50 μg/mL Streptomycin and warmed to 37° C. prior to use. The cells were passaged by first washing briefly with 5 mL Phosphate buffered saline (PBS), followed by addition of 2 mL of Trypsin Ethylenediaminetetraacetic acid (EDTA) to detach the cells. Once cells had detached from the flask, 8 mL media was then added to and the cells dispersed via pipetting against the bottom of the flask.
The cells were counted and diluted to 3×10^5 cells/mL in fresh media. Two T75 flasks were each seeded with 15.6 mL diluted cells, cells were also subcultured at a ratio of between 1:2 and 1:10, to continue the stock. The flasks were then incubated for 24 h at 37° C. and 5% CO2.
The plasmid DNA (for pFR-Luc and pcDNA3.1_Gal4/NFKB) to be transfected into the HEK 293T cells was first prepared in serum free media (Opti-MEM, Invitrogen), containing the transfection reagent FuGENE® 6 (Promega). Serum free media was placed in a 1.5 mL eppendorf tube then the FuGENE 6 was added into the media. The tube was vortexed for 1 s before being incubated at RT for 5 min. 7.79 ng of both pFR_luc and pCDNA3.1_A2_F plasmid DNA were added to tube 1 and 7.79 ng of pCDNA3.1_GAL4-NF-κB plasmid to tube 2. The tubes were vortexed for 1 second and then incubated at room temperature for 15 min. Each transfection mixture was then added into the media of one of the T75 flasks of 293T cells. Cells were cultured for 24 h at 37° C., 5% CO2 in a humidified incubator.
Compounds were diluted (in a polypropylene round-bottomed 96 well plate) 1:3 in a twelve point dilution curve to give top [final] of either 25 μM, 3 μM, 1 μM or 500 nM. A control compound was included in every assay at a top concentration of 3 μM. Transfected cells were counted and diluted to 4×10^5 cells/mL in fresh media. 50 μL of transfection population 1 were added to all wells of the 96 well flat bottom white opaque assay plates. 100 μL diluted compound (2 rows per compound), control compound (one row) and controls (DMSO (0% inhibition, four wells), 3 μM positive control (100% inhibition, four wells) and media (transfection population 1 only, four wells) were added to the appropriate wells. 50 μL of the diluted (4×10^5 cells/mL) population 2 cells when then added to all wells, except the four wells of transfection population 1 only where an extra 50 μL of this cells population was added.
The plates were then incubated for 24 h at 37° C. and 5% CO2. After this time, 100 μL was removed from all wells and 60 μL of ONE-Glo™ (Promega) reagent, pre-equilibrated to room temperature, was added. Plates were then incubated for 3 min at room temperature before luminescence was read, using the ONE-Glo protocol, on the GloMax Explorer System (Promega) multimode reader. Analysis was carried out in Dotmatics software. All raw data were background subtracted (subtraction of mean 3 μM positive control value), before IC50 calculation.

RSV A2 VR-1540 = experiment: RSV plaque reduction assay, typical conditions (HEp-2 cells); conditions: human respiratory syncytial virus
Description: The plaque reduction assay was typically performed as follows. HEp-2 cells (ATCC, CCL23) were passaged in flasks and seeded in 96-well plates in DMEM containing antibiotics and supplemented with 10% FBS. During inoculation and subsequent incubation, cells were cultured in DMEM containing 3% FBS. 100 plaque forming unit (PFU)/well of RSV (RSV A2 VR-1540) was mixed with ten serial dilutions of compound. Subsequently, 100 μL of the virus/compound mixtures was added to confluent HEp-2 cell monolayers. The cells and virus/compound mixtures were incubated at 35° C. in a humidified 5% CO2 incubator for 1 day.
Cells were washed twice with PBS before adding 50% v % v EtOH/MeOH, and then stored at −20° C. On the day of the staining, fixative was first removed from the plates. Plates were washed 3× with PBS. A pre-titrated amount of the primary antibody was added in 60 μL PBS/2% milk powder, and plates incubated for 1 h at rt. The plates were washed 3× with PBS/0.05% Tween20 before addition of goat anti-mouse horse radish peroxidase in 60 μL PBS/2% milk powder, and incubated for 1 h at rt. Following three wash steps with PBS/0.05% Tween20, 60 μL ready-to-use TrueBlue was added and plates were incubated at it for 10-15 min before adding MilliQ water. Plates were washed once with water, incubated for 30-60 min and after removal of water, air-dried in the dark.
(§1) Plates were scanned and analyzed using the Immunospot S6 UV analyzer, which is equipped with BioSpot analysis software for counting immunostained plaques (virospots). Plaque counts were used to calculate % infection relative to the mean of the spot count (SC) in the virus control wells for RSV. IC50/IC90 values were calculated as 50% or 90% reduction in signal, respectively, by interpolation of inhibition curves fitted with a 4-parameter nonlinear regression with a variable slope in GraphPad 5.0 (Prism). Alternatively, where noted the plaque reduction assay was performed as follows. Hep G2 cells (ECACC, 85011430) were passaged in flasks and seeded in 12-well plates in DMEM containing antibiotics and supplemented with 10% FBS, 24 h prior to inoculation. During inoculation and subsequent incubation, cells were cultured in DMEM containing 2% FBS. 75 plaque forming unit (PFU)/well of RSV (RSV A2, 0709161v) was mixed with 8 serial dilutions of compound. Subsequently, 200 μL of the virus/compound mixtures was added to confluent Hep G2 cell monolayers, for a 2 h infection, with manual shaking every 15 min. Infectious supernatant was then removed and replaced with 2 mL of overlay, comprising 4 parts of DMEM+2% FBS and 1 part 4% CMC, with 0.25% DMSO. The cells were incubated at 37° C. in a humidified 5% CO2 incubator for 5 days.

RSV A2, 0709161v = experiment: RSV plaque reduction assay, alternative conditions (Hep G2 cells); conditions: human respiratory syncytial virus, HepG2, mean of at least 2 independent experiments, read-out: RSV Plaque Reduction Assay Strain A2 IC50
Description: as §1
Overlay was removed, and cells were washed with PBS before fixing with a mixture of 75% acetone 25% methanol for 3 minutes and replacing with fresh PBS. […] Staining was carried out whilst shaking at 37° C. First the plates were blocked with 500 uL PBS-T/2% milk powder per well, for 1 hr. This was then replaced with 250 uL PBS-T/2% milk powder containing a pre-titrated amount of the primary antibody (ab1128), for 90 min. The plates were washed 3×5 min with PBS-T, before addition of rabbit anti-goat horse radish peroxidase (AP106P) in 250 μL PBS-T/2% milk powder, and incubated for 1 hr. […]
Plates were scanned and analysed using the Immunospot S6 Macro analyzer, which is equipped with BioSpot analysis software for counting immunostained plaques. […]

| SMILES | IC50 [1] | IC90 (RSV A2 VR-1540; typical protocol, read-out: RSV Plaque Reduction Assay Strain A2 IC90) | IC50 (RSV A2 VR-1540; †: typical protocol, n = 1, read-out: RSV Plaque Reduction Assay Strain A2 IC50) | IC50 (RSV A2, 0709161v) |
| --- | --- | --- | --- | --- |
| CS(=O)(=O)N1CCN(CCCn2c(CN3C(=O)C(F)(F)c4ccccc43)nc3cc(Cl)ccc32)CC1 [Compound 2, 1-({5-Chloro-1-[3-(4-methanesulfonylpiperazin-1-yl)propyl]-1H-1,3-benzodiazol-2-yl}methyl)-3,3-difluoro-2,3-dihydro-1H-indol-2-one] | 16 nM | 35 nM | 5 nM |  |
| CS(=O)(=O)N1CCC(n2c(CN3C(=O)C(F)(F)c4ccccc43)nc3cc(Cl)ccc32)CC1 [Compound 8, 1-{[5-Chloro-1-(1-methanesulfonylpiperidin-4-yl)-1H-1,3-benzodiazol-2-yl]methyl}-3,3-difluoro-2,3-dihydro-1H-indol-2-one] | 1.7 nM |  |  | 3.5 nM |

— patent US11141406B2, “Pharmaceutical compounds” (REVIRAL LIMITED, priority 2017, dated 2021)
